Data taken from patent publication US20240148709A1, “METHODS OF TREATING EYE PAIN AND EYE DISORDERS” (Aisa Pharma, Inc., priority 2022, published 2024).
Marks after values point to notes of the source that are not given here.

System: participants with SSc-RP
Test: Raynaud's attack diary endpoints (frequency, duration, severity, pain, RCS), Phase 2a study Part A
Assay type: in vivo, human
Procedure: Part A—double-blind, placebo-controlled, parallel-group, dose selection, will assess the safety and efficacy of two doses of cilnidipine (10 mg and 20 mg), alone and in combination with tadalafil. A total of 36 participants will be randomized to one of six prespecified treatment arms. Refer to FIG. 1 for treatment arms in Part A of the study. Dosing last for 12 (±2) days in which participants will self-administer daily doses of assigned treatment in the morning. Each participant will take one capsule and one tablet to blind the active therapy being received.
During screening, the Diary will collect the following data to confirm eligibility and serve as the baseline measure for efficacy endpoints should the participant be randomized: • Number of daily Raynaud's attacks • Duration of each attack • Symptoms of each attack, including numbness, pain, tingling, color changes • Severity of each attack (all symptoms of the attack to be considered including tingling, numbness, pain, color changes) • Location of participant during each attack (inside/outside) • Pain score of each attack-using 11-point Likert scale, a validated pain scale which can be used to record intensity of pain. • Daily RCS— a validated outcome measure used to assess the level of difficulty experienced due to RP each day.
The relevant metrics measured by this tool daily are: • Study medication • SSc-RP symptoms (Reporting an attack including duration of attack) • Severity of the attack considering all symptoms of the attack e.g. tingling, numbness, pain, color changes (VAS 0-10 cm scale) • Participant's location at the time of the attack (inside home/outside home) • Selecting symptoms experienced during the attack (tingling, numbness, pain, color changes, other) • Pain rating during the attack (11-point Likert scale) • The RCS based on how much difficulty participants had with Raynaud's today, how many attacks the participant had, and how long they lasted. Participants will also be asked to consider how much pain, numbness, or other symptoms the Raynaud's caused in fingers (including painful sores), and how much the Raynaud's alone affected the use of hands today (VAS 0-10 cm scale).
Percent change from baseline evaluation for frequency of weekly RP attacks will be the primary efficacy endpoint. Data collected in the last 7 days of each dosing period will be used for this analysis. Screening assessments will be used as baseline for the analysis of all periods. No multiple comparison adjustment will be used to control alpha for the multiple comparisons. Mixed effects model will be used for analysis of the primary endpoint according to the crossover design. Other efficacy endpoints of continuous variables will be analyzed using similar methodology. For nominal data, chi-square tests will be applied. Generalized Estimating Equations method will be used, as appropriate, for adjusting for potential confounding factors. In addition, the final analysis will assess whether in this study of severe Raynaud's disease participants, the minimally important difference, previously concluded of 14-15 points on the 100 point RCS scale has been achieved in the cilnidipine dose group. It also will record the percentage of participants achieving a PASS (34 point difference from baseline on a 0-100 VAS) in each treatment group.

[1] = cilnidipine 10 mg and/or tadalafil 5 mg arms
[2] = cilnidipine 20 mg arms (alone or + tadalafil 5 mg)

COCCOC(=O)C1=C(C)NC(C)=C(C(=O)OC/C=C/c2ccccc2)C1c1cccc([N+](=O)[O-])c1 (centres unmarked) [Cilnidipine, cilnidipine]
Subgroup Baseline RCS <3.5, % change (Cilnidipine 20 mg (n = 1)): baseline −42% | Subgroup Baseline RCS >3.5-7.5, % change (Cilnidipine 20 mg (n = 2)): baseline −43% | Subgroup attack frequency, <10 baseline, % change (Cilnidipine 20 mg (n = 2)): baseline −29% | Subgroup attack frequency, >10 baseline, % change (Cilnidipine 20 mg (n = 2)): baseline −50% | Average Raynaud's Pain, % change (Cilnidipine 20 mg (n = 3)): 12% | Daily RCS Change (Cilnidipine 20 mg (n = 3)): −28% | Duration, % change (Cilnidipine 20 mg (n = 3)): −20% | Mean % reduction in RCS (Cilnidipine 20 mg (n = 3)): 27.9% | Mean % reduction in duration (Cilnidipine 20 mg (n = 3)): 20.0% | Mean % reduction in pain (Cilnidipine 20 mg (n = 3)): −11.8% | Mean % reduction in severity (Cilnidipine 20 mg (n = 3)): 35.5% | Mean % reduction of weekly attacks (Cilnidipine 20 mg (n = 3)): 43% | Severity, % change (Cilnidipine 20 mg (n = 3)): −36% | Weekly attack frequency, % change (Cilnidipine 20 mg (n = 3)): −43% | Weekly attack frequency, % change, if baseline RCS <3.5 (Cilnidipine 20 mg (n = 3)): −42% | Subgroup Baseline RCS 3.5-7.5, % change (Pooled Cilnidipine (n = 1)): baseline −86% | Subgroup attack frequency, <10 baseline, % change (Pooled Cilnidipine (n = 2)): baseline −55% | Subgroup attack frequency, >10 baseline, % change (Pooled Cilnidipine (n = 2)): baseline −28% | Daily RCS Change (Pooled Cilnidipine (n = 3)): 12% (n = 3) | Subgroup Baseline RCS <3.5, % change (Pooled Cilnidipine (n = 3)): baseline −27% | Average Raynaud's Pain, % change (Pooled Cilnidipine (n = 7)): −27% | Duration, % change (Pooled Cilnidipine (n = 7)): 20% | Severity, % change (Pooled Cilnidipine (n = 7)): −16% | Weekly attack frequency, % change (Pooled Cilnidipine (n = 7)): −41% | Weekly attack frequency, % change, if baseline RCS <3.5 (Pooled Cilnidipine (n = 7)): −27% | DSMB finding on Raynaud's endpoints (both doses (10 and 20 mg)): effective at reducing Raynaud's endpoints | Average Pain Score Change From Baseline [Mean (SD)] [1]: 0.47 (0.558) | Average Pain Score Percent Change from Baseline [Mean (SD)] [1]: 11.76 (27.478)† % | Average Pain Score [Mean (SD)] after treatment (Raynaud's pain) [1]: 2.82 (2.268) | Average Pain Score Change From Baseline [Mean (SD)] [2]: −0.47 (2.025) | Average Pain Score Percent Change from Baseline [Mean (SD)] [2]: −26.89 (89.725)* % | Average Pain Score [Mean (SD)] after treatment (Raynaud's pain) [2]: 1.28 (1.993)

CN1CC(=O)N2[C@H](c3ccc4c(c3)OCO4)c3[nH]c4ccccc4c3C[C@@H]2C1=O [Tadalafil, tadalafil]
Average Pain Score Change From Baseline [Mean (SD)] [1]: 0.37 (2.219) | Average Pain Score Percent Change from Baseline [Mean (SD)] [1]: 17.20 (64.838) % | Average Pain Score [Mean (SD)] after treatment (Raynaud's pain) [1]: 5.84 (4.768)
